Experimental findings from patent US8481494B2, “Compounds for the treatment of diseases related to protein misfolding” (priority 2009, dated 2013) are described below.

Data set [1] concerns differentiated rat pheochromocytoma (PC-12) cells. Nature of the data set: cells. The following applies: for PC-12 cell protection: in words, compared to the Trimer standard. As for the experimental part:
Next, to examine whether the aminopyrazole trimers could protect cell from Aβ42-induced neurotoxicity, cells were treated for […] with 10 μM Aβ(1-42), a concentration that produces 30 to 40% decrease in cell viability, in the absence or presence of 100 μM of each compound. The viability of the cells then was assessed using the MTT assay.
MTT viability assays. Cell viability assays were performed as described in Fradinger et al. (Fradinger et al., PNAS, 2008). Rat pheochromocytoma (PC-12) cells were maintained in F-12 nutrient mixture with Kaighn's modification (F-12K) (Gibco BRL, Carlsbad, Calif.) with 15% heat-inactivated horse serum and 2.5% FBS at 37° C. in an atmosphere of 5% CO2. For cell viability assays, cells were plated in 96-well plates at a density of 25,000 cells per well in differentiation media (F-12K, 0.5% FBS, […] nerve growth factor) and maintained for 48 h. Aβ42 was solubilized in a minimal amount of DMSO (Sigma) and then diluted in the F-12K media in the absence or presence of the compounds and then added to cells and incubated for 48 h at 37° C. The final Aβ42 concentration was always kept constant at 10 μM. The stock solutions of the compounds were prepared at 10 mM in DMSO and diluted in the F-12K media at the required concentration. Negative controls included DMSO at the same concentration as in the peptide solutions and media alone. A positive control was […] staurosporine as lethal dose which represented 100% reduction in cell viability, based on which the percentage viability of all of the experimental conditions was calculated. Cell viability was assessed quantitatively by the CellTiter 96 Non-Radioactive Cell Proliferation Assay (Promega). Briefly, 15 μl of 3-(4,5-dimethylthiazol-2-yl)-2,5-diphenyltetra-zolium bromide (MTT) dye solution was incubated with the cells for 3 h. Then 100 μl of solubilization/stop solution was added and the plates were incubated overnight in the dark to ensure complete solubilization. Plates were read by using a Synergy HT microplate reader (BioTek), and the absorbance at 570 nm (formazan product) minus the absorbance at 630 nm (background) was recorded. Corrected absorbance was used to calculate the percent cell viability from the experimental change (Amedia-Aexperimental) over the dynamic range (Amedia-Astaurosporine). At least three independent experiments with six replicates (n≧18) were carried out, and the results were averaged.
To determine the IC50 value of each of the compounds, dose-dependence MTT experiments with the compounds were conducted. Aβ42 was used at 10 μM and the compounds were used at 100, 30, 10, 3, 1 and 0.3 μM. Three independent experiments with six replicates (n≧18) were carried out, and results were averaged. The data for each compound was fitted to the following equation to get the IC50 values. y=Bottom+((Top−Bottom)/(1+10^(x-log(IC^50^))))
Top: the y value at which the top of the sigmoidal curve becomes parallel to the X-axis; Bottom: the y value at which the bottom of the sigmoidal curve becomes parallel to the X-axis.
Also, MTT viability assays were run with differentiated PC-12 cells.

Data set [2] can be described thus: Solubility of the unprotected aminopyrazole trimers (stock solutions). The note with it: water (class a) or DMSO (class b).
Description: The ligands were dissolved in 100% DMSO as 4.95 mM stock solutions and were stored at −20° C.
A further data set concerns the target T1, Aβ(1-42) (Homo sapiens, UniProt P05067).
T1 construct: Aβ(1-42)-peptide (Bachem, Bubendorf, Germany) was prepared in HFIP; purchased Bachem, Bubendorf
The data set can be described thus: ThT equilibrium inhibition assay of Aβ aggregation. The note with it: Aβ(1-42), in words. In kind it is biochemical. How it is done: After 72 h, the aggregation process has reached a maximum in the absence or presence of any trimeric ligand, even for the slow Aβ (1-40) peptide. The respective equilibrium concentration is then indicated by the relative fluorescence intensity reached at the end point. The full series of new aminopyrazole trimer derivatives was subjected to ThT inhibition experiments and the final equilibrium was analyzed by comparison of the respective fluorescence intensities of intercalated dye at 482 nm (exc. at 442 nm). […] Their proposed mechanism of action is discussed within the next chapters together with all the other biophysical, biochemical as well as modeling data.
Thioflavin T (ThT) measurements were carried out in a 384-well plate (Nunc GmbH, Wiesbaden, Germany) in an InfiniTe 200 plate reader (Tecan GmbH, Crailsheim, Germany). Fluorescence intensity was measured at 37° C., 446 nm excitation wavelength (bandwidth 9 nm) and 490 nm emission wavelength with a bandwidth of 20 nm. Each data point was averaged over 40 lamp flashes. Each measurement cycle was started by shaking the sample carrier orbitally for 30 s at medium intensity to avoid settling of larger aggregates. The 384-well plate was covered with a transparent and DMSO-stable film (Nunc GmbH, Wiesbaden, Germany). Each single sample was composed of 33 μM Aβ(1-40) or rather Aβ(1-42) in 10 mM PBS (phosphate buffered saline), 10.7% DMSO, 10 μM ThT and 198 μM of the test compound. For graph representation emission values of fourfold samples were averaged. Each test compound was measured separately, both in 10 mM PBS and 10 mM PBS with ThT to exclude any potential interactions between ligand and ThT.
The ThT assay solution was briefly centrifugated and it was pipetted in a 384-well plate. The ThT fluorescence was measured at λEx=446 nm and λEm=490 nm. Each point is the average of quadruplication.

[3] abbreviates: Rattus norvegicus, PC-12, read-out: IC50 of inhibition of Aβ-induced toxicity.

≈ marks a conversion by molar mass, not a printed value. Like-named read-outs stand apart in the source and are kept apart here.

T1 sequence (P05067 672-713 limits assumed): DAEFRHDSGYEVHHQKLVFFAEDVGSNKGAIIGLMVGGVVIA

With `NCCCC[C@H](NC(=O)c1cc(NC(=O)c2cc(NC(=O)c3cc([N+](=O)[O-])n[nH]3)n[nH]2)n[nH]1)C(=O)NCCCOCCOCCOCCCNC(=O)[C@H](CCCCN)NC(=O)c1cc(NC(=O)c2cc(NC(=O)c3cc([N+](=O)[O-])n[nH]3)n[nH]2)n[nH]1` [Trim-Lys-TEGDA-Lys-Trim, N,N′-((5S,23S)-1,27-diamino-6,22-dioxo-11,14,17-trioxa-7,21-diazaheptacosane-5,23-diyl)bis(3-(3-(3-nitro-1H-pyrazole-5-carboxamido)-1H-pyrazole-5-carboxamido)-1H-pyrazole-5-carboxamide)], the IC50 – broadly, the concentration at which inhibition is half-maximal – in data set [1] (setting [3]) amounted to 21.5 µM. Further, in data set [2], the solubility (usually the dissolved amount per volume that the medium holds) was over 4.95 mM.
On to `CC(NC(=O)c1cc(NC(=O)c2cc(NC(=O)c3cc([N+](=O)[O-])n[nH]3)n[nH]2)n[nH]1)C1CCCCC1` (stereo not shown) [Trimer-Che, N-(1-Cyclohexylethyl)-3-(3-(3-nitro-1H-pyrazole-5-carboxamido)-1H-pyrazole-5-carboxamido)-1H-pyrazole-5-carboxamide], for which the “ThT values compared with the original trimer” value at Aβ(1-42) is recorded as “surpass the original trimer activity”. The same compound displayed a solubility in data set [2] of 0.2 to 4.95 mM (≈ 96.9 to 2400 µg/mL).
`CC(NC(=O)C(NC(=O)c1cc(NC(=O)c2cc(NC(=O)c3cc([N+](=O)[O-])n[nH]3)n[nH]2)n[nH]1)C1CCCCC1)C1CCCCC1` (stereo not shown) [Trimer-Chg-Che, N-(1-Cyclohexyl-2-(1-cyclohexylethylamino)-2-oxoethyl)-3-(3-(3-nitro-1H-pyrazol-5-carboxamido)-1H-pyrazol-5-carboxamido)-1H-pyrazol-5-carboxamide]: the IC50 in data set [1] (setting [3]) turned out to be 81 µM. Also, the solubility in data set [2] lay within 0.2 to 4.95 mM (≈ 125 to 3090 µg/mL).
On to `O=C(O)CCCNC(=O)c1cc(NC(=O)c2cc(NC(=O)c3cc([N+](=O)[O-])n[nH]3)n[nH]2)n[nH]1` [Trimer-GABA-OH, 4-(3-(3-(3-Nitro-1H-pyrazole-5-carboxamido)-1H-pyrazole-5-carboxamido)-1H-pyrazole-5-carboxamido)butanoic acid], for which the “ThT values compared with the original trimer” value on Aβ(1-42) is on record as “above the trimer standard”. The IC50 in data set [1] (setting [3]) was 18.5 µM. The same compound displayed a solubility in data set [2] of 0.2 to 4.95 mM (≈ 92.1 to 2280 µg/mL).
The matching figures for `COC(=O)CCCNC(=O)c1cc(NC(=O)c2cc(NC(=O)c3cc([N+](=O)[O-])n[nH]3)n[nH]2)n[nH]1` [Trimer-GABA-OMe, 4-(3-(3-(3-Nitro-1H-pyrazole-5-carboxamido)-1H-pyrazole-5-carboxamido)-1H-pyrazole-5-carboxamido)butanoic acid methyl ester]: “above the trimer standard”, 20.3 µM and 0.2 to 4.95 mM (≈ 94.9 to 2350 µg/mL).
As for `CC(NC(=O)C(CCCCN)NC(=O)c1cc(NC(=O)c2cc(NC(=O)c3cc([N+](=O)[O-])n[nH]3)n[nH]2)n[nH]1)C1CCCCC1.O=C(O)C(F)(F)F` (stereo not shown) [Trimer-Lys-Che, N-(6-Amino-1-(1-cyclohexylethylamino)-1-oxohexan-2-yl)-3-(3-(3-nitro-1H-pyrazole-5-carboxamido)-1H-pyrazole-5-carboxamido)-1H-pyrazole-5-carboxamide-trifluoro-acetate], the “ThT values compared with the original trimer” value at Aβ(1-42) is recorded as “surpass the original trimer activity”. In data set [2], the solubility is over 4.95 mM.
Consider `CC(NC(=O)COCCOCCOCCNC(=O)c1cc(NC(=O)c2cc(NC(=O)c3cc([N+](=O)[O-])n[nH]3)n[nH]2)n[nH]1)C1CCCCC1` (stereo not shown) [Trimer-TEG-Che, N-(13-Cyclohexyl-11-oxo-3,6,9-trioxa-12-azatetradecyl)-3-(3-(3-nitro-1H-pyrazole-5-carboxamido)-1H-pyrazole-5-carboxamido)-1H-pyrazole-5-carboxamide], for which, in data set [2], the solubility fell in the range of 0.2 to 4.95 mM (≈ 135 to 3330 µg/mL).
For `CCCCCCCCCCCCNC(=O)COCCOCCOCCNC(=O)c1cc(NC(=O)c2cc(NC(=O)c3cc([N+](=O)[O-])n[nH]3)n[nH]2)n[nH]1` [Trimer-TEG-Dodecyl, 3-Nitro-N-(5-(5-(11-oxo-3,6,9-trioxa-12-azatetracosylcarbamoyl)-1H-pyrazol-3-ylcarbamoyl)-1H-pyrazol-3-yl)-1H-pyrazole-5-carboxamide], the half-inhibitory concentration (IC50) in data set [1] (setting [3]) was over 100 µM. In addition, in data set [2], the solubility lay in the range of 0.2 to 4.95 mM (≈ 146 to 3620 µg/mL).
Take `CCOC(=O)COCCOCCOCCNC(=O)c1cc(NC(=O)c2cc(NC(=O)c3cc([N+](=O)[O-])n[nH]3)n[nH]2)n[nH]1` [Trimer-TEG-OEt, 1-(3-(3-(3-Nitro-1H-pyrazole-5-carboxamido)-1H-pyrazole-5-carboxamido)-1H-pyrazole-5-yl)-1-oxo-5,8,11-trioxa-2-azatridecan-13-oic acid ethyl ester]: the PC-12 cell protection entry in data set [1] is “only very modest”. This compound also returned a solubility in data set [2] of 0.2 to 4.95 mM (≈ 119 to 2930 µg/mL).
For the compound `O=C(O)COCCOCCOCCNC(=O)c1cc(NC(=O)c2cc(NC(=O)c3cc([N+](=O)[O-])n[nH]3)n[nH]2)n[nH]1` [Trimer-TEG-OH, {2-[2-(2-{[5-({5-[(5-Nitro-2H-pyrazole-3-carbonyl)-amino]-2H-pyrazole-3-carbonyl}-amino)-2H-pyrazole-3-carbonyl]-amino}-ethoxy)-ethoxy]-ethoxy}-acetic acid], in data set [1] (setting [3]), the IC50 stood at 35.3 µM. Besides, the PC-12 cell protection entry in data set [1] is “only very modest”. The solubility in data set [2] was in the range of 0.2 to 4.95 mM (≈ 113 to 2790 µg/mL).
With `NCCNC(=O)c1cc(NC(=O)c2cc(NC(=O)c3cc([N+](=O)[O-])n[nH]3)n[nH]2)n[nH]1` [Trimer-diamine, N-(2-Aminoethyl)-3-(3-(3-nitro-1H-pyrazole-5-carboxamido)-1H-pyrazole-5-carboxamido)-1H-pyrazole-5-carboxamide], on Aβ(1-42), the “ThT values compared with the original trimer” value is recorded as “above the trimer standard”. In addition, the solubility in data set [2] is 0.2 to 4.95 mM (≈ 83.5 to 2070 µg/mL).
Turning to “Trimer-TEG-LPFFD-OH [1-(3-(3-(3-nitro-1H-pyrazole-5-carboxamido)-1H-pyrazole-5-carbox-amido)-1H-pyrazol-5-yl)-1-oxo-5,8,11-trioxa-2-azatridecan-13-carboxamido-(S)-leucinyl-(S)-prolinyl-(S)-phenylalaninyl-(S)-phenylalaninyl-(S)-aspartic acid]”, the IC50 in data set [1] (read-out: IC50 of inhibition of Aβ-induced toxicity, PC-12 cells, MTT, Aβ42 10 μM, ligand 0.3-100 μM) was 10.1 µM.
